Columns and labels:
[1] = system: Rattus norvegicus; assay: Toxicity in […] normotensive Wistar rat assessed as mean arterial pressure at 10 mg/kg, ip after 15 mins (reference value: 93.81 +/- 1.543 mmHg); format: organism-based, Artery; parameters: dose 10 mg/kg, route intraperitoneal; details: in vivo, 0.25 h
[2] = system: Rattus norvegicus; assay: Antihypertensive activity in Wistar rat assessed as mean arterial pressure at 10 mg/kg, ip measured immediately at 60 mins (reference value: 195.11 +/- 0.531 mmHg); format: functional, Artery; details: route intraperitoneal
[3] = system: Rattus norvegicus; assay: Antihypertensive activity in Wistar rat assessed as mean arterial pressure at 10 mg/kg, ip measured immediately at 30 mins (reference value: 194.72 +/- 1.002 mmHg); format: functional, Artery; details: route intraperitoneal
[4] = system: Rattus norvegicus; assay: Toxicity in […] normotensive Wistar rat assessed as mean arterial pressure at 10 mg/kg, ip after 30 mins (reference value: 94.68 +/- 1.213 mmHg); format: organism-based, Artery; parameters: dose 10 mg/kg, route intraperitoneal; details: in vivo, 0.5 h
[5] = system: Rattus norvegicus; assay: Toxicity in […] normotensive Wistar rat assessed as mean arterial pressure at 10 mg/kg, ip after 60 mins (reference value: 95.07 +/- 1.973 mmHg); format: organism-based, Artery; parameters: dose 10 mg/kg, route intraperitoneal; details: in vivo, 1 h
[6] = system: Rattus norvegicus; assay: Antihypertensive activity in Wistar rat assessed as mean arterial pressure at 10 mg/kg, ip measured immediately at 15 mins (reference value: 195.68 +/- 1.623 mmHg); format: functional, Artery; details: route intraperitoneal
[7] = system: Rattus norvegicus; assay: Antihypertensive activity in Wistar rat assessed as mean arterial pressure at 10 mg/kg, ip measured immediately at 45 mins (reference value: 193.96 +/- 0.865 mmHg); format: functional, Artery; details: route intraperitoneal
[8] = system: Rattus norvegicus; assay: Toxicity in […] normotensive Wistar rat assessed as mean arterial pressure at 10 mg/kg, ip measured immediately at 0 min (reference value: 94.21 +/- 2.065 mmHg); format: organism-based, Artery; parameters: dose 10 mg/kg, route intraperitoneal; details: in vivo, 0 h
[9] = system: Rattus norvegicus; assay: Toxicity in […] normotensive Wistar rat assessed as mean arterial pressure at 10 mg/kg, ip after 45 mins (reference value: 94.83 +/- 0.943 mmHg); format: organism-based, Artery; parameters: dose 10 mg/kg, route intraperitoneal; details: in vivo, 0.75 h
[10] = system: Rattus norvegicus; assay: Antihypertensive activity in Wistar rat assessed as mean arterial pressure at 10 mg/kg, ip measured immediately at 0 min (reference value: 194.08 +/- 1.962 mmHg); format: functional, Artery; details: route intraperitoneal
[11] = system: Rattus norvegicus; assay: Toxicity in anesthetized-normotensive Wistar rat assessed as heart rate at 15 mg/kg, ip measured immediately at 0 min (reference value: 316.62 +/- 9.643 bpm); format: organism-based; parameters: dose 15 mg/kg, route intraperitoneal; details: in vivo, 0 h
[12] = system: Rattus norvegicus; assay: Antiarrhythmic activity in barium chloride-induced Wistar rat assessed as increase in mortality time at 15 mg/kg, ip administered 60 mins before barium chloride challenge (reference value: 682.8 +/- 9.656 secs); format: functional, Heart; details: route intraperitoneal
[13] = system: Rattus norvegicus; assay: Toxicity in anaesthetized-Wistar rat assessed as Q-T ECG interval at 15 mg/kg, ip after 60 mins (reference value: 79.7 +/- 0.965 ms); format: organism-based; parameters: dose 15 mg/kg, route intraperitoneal; details: in vivo, 1 h
[14] = system: Rattus norvegicus; assay: Toxicity in anesthetized-normotensive Wistar rat assessed as heart rate at 15 mg/kg, ip after 15 mins (reference value: 313.93 +/- 9.912 bpm); format: organism-based; parameters: dose 15 mg/kg, route intraperitoneal; details: in vivo, 0.25 h
[15] = system: Rattus norvegicus; assay: Toxicity in anesthetized-normotensive Wistar rat assessed as heart rate at 15 mg/kg, ip after 30 mins (reference value: 317.68 +/- 7.631 bpm); format: organism-based; parameters: dose 15 mg/kg, route intraperitoneal; details: in vivo, 0.5 h
[16] = system: Rattus norvegicus; assay: Antiarrhythmic activity in barium chloride-induced Wistar rat assessed as increase in appearance time of arrhythmia at 15 mg/kg, ip administered 60 mins before barium chloride challenge (reference value: 129.4 +/- 4.373 sec); format: functional, Heart; details: route intraperitoneal
[17] = system: Rattus norvegicus; assay: Toxicity in anaesthetized-Wistar rat assessed as Q-T ECG interval at 15 mg/kg, ip after 45 mins (reference value: 78.8 +/- 0.927 ms); format: organism-based; parameters: dose 15 mg/kg, route intraperitoneal; details: in vivo, 0.75 h
[18] = system: Rattus norvegicus; assay: Toxicity in anesthetized-normotensive Wistar rat assessed as heart rate at 15 mg/kg, ip after 60 mins (reference value: 314.96 +/- 9.442 bpm); format: organism-based; parameters: dose 15 mg/kg, route intraperitoneal; details: in vivo, 1 h

| SMILES | Activity [1] [mmHg] | Activity [2] [mmHg] | Activity [3] [mmHg] | Activity [4] [mmHg] | Activity [5] [mmHg] | Activity [6] [mmHg] | Activity [7] [mmHg] | Activity [8] [mmHg] | Activity [9] [mmHg] | Activity [10] [mmHg] | Activity [11] [bpm] | Time [12] [s] | Activity [13] [ms] | Activity [14] [bpm] | Activity [15] [bpm] | Time [16] [s] | Activity [17] [min] | Activity [18] [bpm] |
| --- | --- | --- | --- | --- | --- | --- | --- | --- | --- | --- | --- | --- | --- | --- | --- | --- | --- | --- |
| CC(C)NCC(O)COc1cccc2ccccc12 (stereo not drawn) [PROPRANOLOL] | 79.43 | 152.26 | 148.53 | 62.96 | 70.21 | 171.73 | 120.32 | 92.56 | 65.87 | 195.12 |  |  |  |  |  |  |  |  |
| C=C[C@H]1CN2CC[C@H]1C[C@@H]2[C@@H](O)c1ccnc2ccc(OC)cc12 [QUINIDINE] |  |  |  |  |  |  |  |  |  |  | 311.8 | 1281.8 | 90.6 | 285.16 | 246.18 | 394.8 | 91.3 | 286.32 |
